Where “and” joins values, the source holds several entries; their conditions need not be identical. Equal entries are not always repeated. Structures can show the parent of a compound that is named as a salt. Where two headings read alike, the source gives them in different places. Blank lines part the entries; values can stand above or below the compound they belong to.
Tests used:
[1] = tested on: guinea pig tracheal rings; experiment: Organ bath muscle force, TEA-induced contraction of guinea pig tracheal rings (Examples 1, 4, 13); settings: for relaxation of TEA-induced contraction: 10 mM TEA
Procedure: Epithelial denuded guinea pig tracheal rings were suspended in organ baths under 1 g resting tension with continuous digital recordings of muscle force. In separate studies, guinea pig airway smooth muscle cells were enzymatically dispersed and cultured.
Human muscle tissue was acquired from excess lung airways trimmed during surgery from healthy lung transplant donors. Acquired tissue was stored overnight at […]. Airway smooth muscle contractions measured ex vivo in organ baths were performed as previously described (Gallos et al., 2008; Gallos et al., 2009, Gallos et al., 2011; Gleason et al., 2010; Yim et al., 2011; Mitzuta et al., 2008). Closed guinea pig tracheal rings or strips of human airway smooth muscle (tracheal or main stem bronchus) were suspended in organ baths, which had 95% oxygen constantly perfusing through Dulbecco's Modified Eagle Medium. Rings were cut on the cartilaginous borders of the smooth muscle. The epithelial layer was dissected under microscopic assistance. Briefly, tissues were suspended in a water-jacketed (37° C.) 2-ml organ bath (Radnoti Glass Technology, Monrovia, Calif.) and attached to a Grass FT03 force transducer (Grass Telefactor, West Warwick, R.I.) coupled to a computer via BioPac hardware and Acqknowledge 7.3.3 software (Biopac Systems, Goleta, Calif.). Kreb's-Henseleit (KH) buffer was continuously bubbled with 95% oxygen and 5% carbon dioxide and tissues were allowed to equilibrate at 1 g (guinea pig) or 1.5 g (human) isotonic force for 1 hour with fresh KH buffer changes every 15 minutes.
Following equilibration, in guinea pig experiments, the capsaicin analog N-vanillylnonanamide (10 μM final) was added to the organ baths to first activate and then deplete nonadrenergic, noncholinergic nerves. […]. In experiments with human tissue, no vanillylnonanamide pretreatment was done. To avoid bias between treatment groups, tissues were contracted to individually calculated EC50 values for acetylcholine and tissues with similar Emax values were randomly assigned to treatments within individual experiments. Following extensive KH buffer changes (8-9 times) tissues were allowed to stabilize at isotonic resting tension (about 1.0 g). To remove confounding effects of other procontractile pathways, each bath received a complement of antagonists 20 minutes prior to subsequent contractile challenge. The antagonists included pyrilamine (10 μM; H1 histamine receptor antagonist), and tetrodotoxin (1 μM; blocker of endogenous cholinergic or C-fiber neuronal effects) in guinea pig experiments or pyrilamine and 10 μM MK571 (leukotriene receptor antagonist) in human tissue experiments. […]
Airway smooth muscle contractions measured ex vivo in organ baths were performed as set forth above. […]

[2] = tested on: human airway smooth muscle cells; experiment: FLIPR potentiometric dye membrane potential assay (Examples 9, 12); assay type: cell-based; settings: 10 μM
Procedure: To determine whether blockade of CaCCs or NKCCs induce membrane potential changes in cultured human airway smooth muscle cells, the FLIPR in vitro fluorescent dye assay (Molecular Devices) was used as described by Wafford et al. (2009). Briefly, human airway smooth muscle cells were grown to 100% confluence in 96-well black-walled plates and were washed with warmed (37° C.) normal-chloride buffer [consisting of (in mM) 130 sodium chloride, 2 CaCl2, 1 MgCl2, 10 D-glucose, and 10 HEPES, pH 7.4] four times. A stock solution (100% dye) of FLIPR blue dye (Molecular Devices) was prepared by reconstitution of 1 vial (125 mg) with 100 ml of the normal-chloride buffer (assay buffer). A 50% working stock was prepared by further diluting the reconstituted blue dye 1:1 with assay buffer and was used to load cells (90 μl/well) over 20 minutes at 37° C. All reagents were dissolved in assay buffer. Baseline fluorescence was measured for 3 minutes prior to the first control additions (assay buffer). […] The fluorescence produced by membrane potential change following solution additions was quantified after subtracting changes induced by assay buffer alone.

[3] = tested on: human airway smooth muscle cells; experiment: FLIPR membrane potentiometric dye assay (Example 21); assay type: cell-based
Procedure: Immortalized airway smooth muscle cell lines modified to stably express human telomerase reverse transcriptase were a kind gift from Dr. William Gerthoffer (University of Southern Alabama, Mobile, Ala.) prepared as described previously (Gosens et al., 2006) and grown in Dulbecco's Modified Eagle's Medium/F12 media (GIBCO, Grand Island, N.Y.), with 10% FBS and antibiotics.
Immortalized human airway smooth muscle cells were cultured on black-walled 96 well plates to 100% confluence, and were washed four times with warmed (37° C.) assay buffer of the following composition (in mM): NaCl 140, KCl 4.7, CaCl2 2.5, MgCl2 1.2, HEPES 11, D-glucose 10. A stock solution (100% dye) of FLIPR blue dye was prepared by reconstitution of 1 vial (125 mg) with 100 ml assay buffer. A 50% working stock was prepared by further diluting the reconstituted blue dye 1:1 with assay buffer and was used to load cells (90 μl/well) over 45 min at 37° C. in a humidified cell culture incubator (95% air/5% CO2). All reagents were dissolved in assay buffer. Fluorescence was measured with a Flex Station 3 (Molecular Devices) using an excitation wavelength of 530 nm, emission wavelength of 565 nm and a cutoff filter of 550 nm. Baseline fluorescence was measured every 2 seconds for 1 minute then for 2 minutes after injection of vehicle or compound of interest as indicated (using the Flexstation's 3 integrated injection capabilities).
Human airway smooth muscle cells were incubated with FLIPR membrane potentiometric dye to assess if the chloride channel blockers changed membrane potential at the cellular level. FLIPR fluorescence will increase with depolarization, and decrease with hyperpolarization. […] Therefore, chloride channel blockade, but not NKCC blockade, hyperpolarized human airway smooth muscle cells.

[4] = tested on: guinea pig tracheal rings; experiment: Relaxation of potassium gluconate contraction in guinea pig tracheal rings; settings: 100 μM; 80 mM potassium gluconate
Procedure: (§1) Animal protocols were approved by the Columbia University Animal Care and Use Committee. Male Hartley guinea pigs weighing approximately 400 g were anesthetized with intraperitoneal injection of sodium pentobarbital (100 mg/kg). Trachea were removed and transferred to ice cold Krebs-Henseleit (KH) buffer of the following composition (in mM): NaCl 118, KCl 5.6, CaCl2 0.5, MgSO4 0.24, NaH2PO4 1.3, NaHCO3 25, glucose 5.6, pH 7.4. Epithelial-denuded tracheal rings were prepared using a dissecting microscope. Epithelium was removed by gently passing cotton fibers through the lumen of the tracheal rings. The rings were suspended in 4 mL-water jacketed organ baths (37° C.: Radnoti Glass Technology, Monrovia, Calif.) and connected to a Grass FT03 force transducer (Grass Telefactor, West Warwick, R.I.) using silk sutures. The transducers were coupled to the computer with BioPac hardware and data was collected using Acqknowledge 7.3.3 software (BioPac Systems, Goleta, Calif.). KH buffer was bubbled with a gas mixture of 95% oxygen and 5% carbon dioxide and buffer was exchanged every 15 minutes for 1 hour during equilibration of tracheal rings at 1 g resting tension. […].
Many chloride channel blockers are known to also stimulate potassium channels (Greenwood et al., 2007). Thus, we performed additional studies in the presence of a large extracellular concentration of potassium to ensure that our findings of compound 1 or 13 inhibiting a TEA-induced depolarizing contraction were not due to these compounds opening a potassium channel.

[5] = tested on: guinea pig tracheal rings; experiment: Relaxation of TEA contraction in guinea pig tracheal rings (Example 16, library screen); settings: 10 mM TEA
Procedure: as §1

[6] = tested on: human airway smooth muscle; experiment: Relaxation of acetylcholine contraction in human airway smooth muscle strips; settings: 100 μM alone; EC50 acetylcholine
Procedure: Studies using de-identified human tissue were reviewed by the Columbia University Institutional Review Board and deemed not human subjects research. Tissues were obtained from healthy, normal organ donor discarded surgical waste subsequent to lung transplant surgery. Tissues were collected after transplant and placed in DMEM media (GIBCO) and bubbled overnight in 5% carbon dioxide and 95% oxygen at 4° C. The following morning, the smooth muscle tissue was carefully dissected under a dissecting microscope and the epithelium removed. The strips were anchored in the organ bath as described above using KH buffer of the same composition. The strips were allowed to equilibrate for 1 hour with buffer exchanges every 15 minutes and were treated with 10^−6 M tetrodotoxin, 10^−5 M pyrilamine, and 10^−5
M MK571. Strips were contracted with an EC50 dose of acetylcholine (Ach)
This experiment was then repeated with human airway smooth muscle to investigate clinical relevance as a model of bronchospasm in humans.

[7] = tested on: guinea pig tracheal rings; experiment: Potentiation of isoproterenol relaxation of acetylcholine contraction, guinea pig tracheal rings; settings: Cavia porcellus, read-out: EC50 of isoproterenol-mediated relaxation of an acetylcholine contraction
Procedure: as §1
Therefore, we tested whether the chloride channel blockers or modulation of chloride flux could be used in combination with β-agonists to potentiate their effects. […]. Therefore, a combination of treatment with compound 13 and bumetanide potentiated the relaxation effect of isoproterenol.

rat lung slices = experiment: Airway lumen area in peripheral small airways of rat lung slices; settings: contractile agonists
Procedure: The measurement of airway contraction of a luminal area of small lung airways using the ex vivo rat lung slice method was performed as described (Perez-Zoghbi et al., 2007). The trachea was cannulated with an intravenous catheter, and after the chest cavity was opened, the collapsed lungs were reinflated with 1.3±0.1 ml of 2% agarose (low-gelling temperature) in Sigma-Hanks' Balanced Salt solution (sHBSS), followed by the injection of 0.2±0.1 of air to flush the agarose-sHBSS out of the airways and into the distal alveolar space. Subsequently, a warm (37° C.) solution of gelatin (type A, porcine skin, 300 bloom, 6% in sHBSS) was perfused through the intrapulmonary blood vessels via the pulmonary artery by injecting about 0.3 ml into the right ventricle. The warm agar and gelatin were gelled with cold sHBSS. A single lung lobe was removed and cut into serial sections of about 130 μm thick with a vibratome at about 4° C., starting at the lung periphery. Slices were maintained in DMEM (Invitrogen) at 37° C. and 10% CO2 for up to 3 days. At 37° C., the gelatin in the blood vessel lumen dissolved, leaving the blood vessel lumen empty. Lung slices were mounted in a custom-made perfusion chamber and held in place with a small sheet of nylon mesh. A second cover glass edged with silicone grease was placed over the lung slice. Perfusion of the lung slice was performed using a gravity-fed perfusion system. The volume of the chamber was about 100 μl with a perfusion rate of about 800 μl/min. […] Digital images were recorded in time lapse (30 frames/min). The area of the bronchiole and arteriole lumen was calculated, from each image, by pixel summing using custom-written software. Experiments were performed at room temperature.

[8] = tested on: human airway smooth muscle cells; experiment: MQAE fluorescence assay of intracellular chloride; assay type: cell-based; settings: 10 mM TEA-acetate
Procedure: To determine whether blockade of CaCCs or NKCCs induce changes in intracellular chloride concentrations in human airway smooth muscle cells, the MQAE in vitro fluorescent dye assay (Invitrogen) was used. Briefly, human airway smooth muscle cells were grown to 100% confluence in 96-well black-walled plates. Cells were loaded overnight with 10 mM MQAE in serum-free basal cell culture medium (M199, Invitrogen) and were washed once with warmed (37° C.) normal-chloride buffer [consisting of (in mM) 130 sodium chloride, 2 CaCl2, 1 MgCl2, 10 D-glucose, and 10 HEPES, pH 7.4]. […] An increase in fluorescence represents decreased intracellular chloride (removal of halide quenching of MQAE) while decreased fluorescence represents increased intracellular chloride (enhanced halide quenching of MQAE).

SMILES: O=C(O)c1cccnc1Nc1cccc(C(F)(F)F)c1 [water-soluble NFA, sodium salt of niflumic acid]
potency at relaxing airway smooth muscle (muscle force at 60 minutes as a percent of initial force after TEA treatment) ([1]; 10 μM, water soluble form compared to hydrophobic parent NFA): enhanced potency

SMILES: O=c1[nH]c2cc(C(F)(F)F)ccc2n1-c1cc(C(F)(F)F)ccc1O [NS1619]
membrane potential change (FLIPR) [2]: positive control for hyperpolarization
membrane potential, continuous fluorescence recording (representative tracing) [3]: hyperpolarize

SMILES: NS(=O)(=O)c1cc(C(=O)O)c(NCc2ccco2)cc1Cl [furosemide]
relaxation of TEA-induced contraction ([1]; 300 μM furosemide): 77.6%

SMILES: O=C(O)c1cc(Cl)ccc1NCc1ccc(Cl)cc1 [compound 1, 5-chloro-2-((4-chlorobenzyl)amino)benzoic acid]
percent of potassium gluconate-induced contraction at 30 minutes [4]: 61.46%±6.3 and 61.5%±6.3
membrane potential, continuous fluorescence recording (representative tracing) [3]: hyperpolarize
change in relative fluorescent units (membrane potential, FLIPR) ([3]; 100 μM, n=12): −240.3+/−35 RFU
percent of the TEA-induced contraction remaining at 15 minutes ([5]; 100 μM): 23.8±14.9%
relaxed fraction of a TEA-induced contraction at 15 minutes after drug addition ([5]; 100 μM): 76.2%
relaxation of TEA-induced contraction (screen of 20-compound chloride channel blocker library) [5]: most potently relax
time to complete relaxation of TEA contraction ([5]; representative tracing): ≤ 15 min
relaxation of acetylcholine contraction [6]: 45.4%±6.3

EC50 ([7]; vehicle): 5.99 nM
EC50 ([7]; with 10 μM bumetanide): 2.51 nM
EC50 ([7]; with 50 μM compound 13): 2.7 nM
EC50 ([7]; with 50 μM compound 13 and 10 μM bumetanide): 0.477 nM
SMILES: CC(C)NCC(O)c1ccc(O)c(O)c1 (stereo not shown) [isoproterenol]

SMILES: [Cl-].[K+] [KCl, potassium chloride]
percent decrease in lumen area compared to rest (rat lung slices): significant decrease in lumen area

SMILES: CC(=O)[O-].CC[N+](CC)(CC)CC [TEA-acetate, tetraethylammonium (TEA)-acetate]
intracellular chloride (MQAE fluorescence) [8]: decreased intracellular chloride concentrations

SMILES: COC(=O)C1=C(C)NC(C)=C(C(=O)OC)C1c1ccccc1[N+](=O)[O-] [nifedipine]
relaxation of TEA-induced contraction ([1]; 10 μM nifedipine): 111%
